{"source": "ChEMBL document CHEMBL5715954", "about": "“Silencing c-Myc translation as a therapeutic strategy through targeting PI3Kδ and CK1ε in hematological malignancies” (Blood, 2017)", "design_in_all_cases": "scale not given: the % may be the effect or the level left", "key": {"[1]": {"target": "T1, Mitogen-activated protein kinase 12 (Homo sapiens) (UniProt P53778)", "T1 sequence (whole entry)": "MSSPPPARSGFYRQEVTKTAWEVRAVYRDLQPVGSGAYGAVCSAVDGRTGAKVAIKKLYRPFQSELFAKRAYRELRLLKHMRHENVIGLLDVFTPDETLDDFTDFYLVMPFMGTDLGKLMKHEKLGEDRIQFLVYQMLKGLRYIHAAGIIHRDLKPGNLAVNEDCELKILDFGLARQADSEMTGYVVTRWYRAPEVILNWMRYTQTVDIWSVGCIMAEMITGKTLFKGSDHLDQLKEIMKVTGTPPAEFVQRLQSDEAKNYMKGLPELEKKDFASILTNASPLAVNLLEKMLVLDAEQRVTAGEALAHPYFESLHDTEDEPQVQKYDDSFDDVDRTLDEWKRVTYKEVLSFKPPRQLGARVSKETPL", "experiment": "Inhibition of human P38g assessed as enzyme activity at 1 uM using myelin basic protein as substrate preincubated for 20 mins followed by [gamma-33P]-ATP addition and measured after 120 mins by radiometric Hot-SpotSM Kinase assay relative to control"}, "[2]": {"target": "Mitogen-activated protein kinase kinase kinase 20 (Homo sapiens) (UniProt Q9NYL2)", "sequence (Q9NYL2 2-800 limits assumed)": "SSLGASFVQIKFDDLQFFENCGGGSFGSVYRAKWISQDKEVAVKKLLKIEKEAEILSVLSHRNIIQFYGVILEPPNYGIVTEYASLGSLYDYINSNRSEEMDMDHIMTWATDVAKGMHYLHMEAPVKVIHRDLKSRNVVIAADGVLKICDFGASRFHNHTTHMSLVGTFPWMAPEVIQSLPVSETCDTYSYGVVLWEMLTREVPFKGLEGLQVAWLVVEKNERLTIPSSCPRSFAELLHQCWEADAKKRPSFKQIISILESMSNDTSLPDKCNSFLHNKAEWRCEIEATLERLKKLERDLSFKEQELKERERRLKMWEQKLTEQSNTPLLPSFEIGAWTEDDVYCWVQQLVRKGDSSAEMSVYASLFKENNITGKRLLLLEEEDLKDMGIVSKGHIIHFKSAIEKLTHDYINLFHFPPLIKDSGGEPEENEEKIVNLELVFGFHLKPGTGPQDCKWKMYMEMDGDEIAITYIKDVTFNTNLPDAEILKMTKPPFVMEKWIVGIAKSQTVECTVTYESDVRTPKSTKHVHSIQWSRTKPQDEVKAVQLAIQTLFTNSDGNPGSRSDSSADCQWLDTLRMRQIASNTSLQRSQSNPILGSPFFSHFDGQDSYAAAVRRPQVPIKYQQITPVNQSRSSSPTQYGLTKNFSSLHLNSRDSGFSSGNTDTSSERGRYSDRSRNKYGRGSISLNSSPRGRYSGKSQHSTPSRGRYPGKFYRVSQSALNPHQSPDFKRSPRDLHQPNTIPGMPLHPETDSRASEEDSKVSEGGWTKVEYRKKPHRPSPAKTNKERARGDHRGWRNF", "experiment": "Inhibition of human ZAK/MLTK assessed as enzyme activity at 1 uM using myelin basic protein as substrate preincubated for 20 mins followed by [gamma-33P]-ATP addition and measured after 120 mins by radiometric Hot-SpotSM Kinase assay relative to control"}, "[3]": {"target": "Serine/threonine-protein kinase PAK 5 (Homo sapiens) (UniProt Q9P286)", "sequence (Q9P286 whole entry, looked up)": "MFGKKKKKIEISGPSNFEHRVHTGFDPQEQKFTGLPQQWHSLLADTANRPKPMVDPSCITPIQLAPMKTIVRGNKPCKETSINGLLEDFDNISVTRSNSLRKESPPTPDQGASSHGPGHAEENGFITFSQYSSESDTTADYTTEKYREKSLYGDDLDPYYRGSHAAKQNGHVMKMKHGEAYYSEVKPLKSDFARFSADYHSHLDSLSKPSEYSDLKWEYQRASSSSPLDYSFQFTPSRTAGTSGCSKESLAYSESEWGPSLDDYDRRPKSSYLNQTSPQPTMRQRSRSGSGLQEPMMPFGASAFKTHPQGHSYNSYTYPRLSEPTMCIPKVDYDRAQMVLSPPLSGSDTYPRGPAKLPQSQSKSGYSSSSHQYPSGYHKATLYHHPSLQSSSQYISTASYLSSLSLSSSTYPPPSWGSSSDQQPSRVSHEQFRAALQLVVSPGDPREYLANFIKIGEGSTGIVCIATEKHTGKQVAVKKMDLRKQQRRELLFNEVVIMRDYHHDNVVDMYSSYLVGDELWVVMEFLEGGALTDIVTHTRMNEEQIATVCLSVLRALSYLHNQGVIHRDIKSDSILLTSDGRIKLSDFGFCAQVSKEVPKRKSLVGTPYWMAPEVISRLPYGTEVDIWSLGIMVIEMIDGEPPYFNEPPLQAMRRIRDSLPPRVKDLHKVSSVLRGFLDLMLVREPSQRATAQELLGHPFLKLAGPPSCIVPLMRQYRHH", "experiment": "Inhibition of human PAK5 assessed as enzyme activity at 1 uM using RRRLSFAEPG as substrate preincubated for 20 mins followed by [gamma-33P]-ATP addition and measured after 120 mins by radiometric Hot-SpotSM Kinase assay relative to control"}, "[4]": {"target": "T2, Serine/threonine-protein kinase Nek3 (Homo sapiens) (UniProt P51956)", "T2 sequence (whole entry)": "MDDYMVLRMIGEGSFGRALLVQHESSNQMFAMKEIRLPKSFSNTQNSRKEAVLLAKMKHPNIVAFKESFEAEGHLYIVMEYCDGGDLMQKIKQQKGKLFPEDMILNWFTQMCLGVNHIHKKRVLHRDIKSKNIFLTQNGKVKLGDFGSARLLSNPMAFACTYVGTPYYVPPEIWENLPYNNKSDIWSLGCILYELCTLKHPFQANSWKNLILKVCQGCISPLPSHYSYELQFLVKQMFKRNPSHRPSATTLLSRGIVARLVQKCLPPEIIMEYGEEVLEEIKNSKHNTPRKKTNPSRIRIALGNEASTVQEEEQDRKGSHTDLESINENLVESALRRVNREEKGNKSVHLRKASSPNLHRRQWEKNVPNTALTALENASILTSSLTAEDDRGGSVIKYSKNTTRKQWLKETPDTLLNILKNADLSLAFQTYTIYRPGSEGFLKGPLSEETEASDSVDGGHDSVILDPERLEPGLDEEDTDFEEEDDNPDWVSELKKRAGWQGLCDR", "experiment": "Inhibition of human NEK3 assessed as enzyme activity at 1 uM using myelin basic protein as substrate preincubated for 20 mins followed by [gamma-33P]-ATP addition and measured after 120 mins by radiometric Hot-SpotSM Kinase assay relative to control"}, "[5]": {"target": "T3, NUAK family SNF1-like kinase 1 (Homo sapiens) (UniProt O60285)", "T3 sequence (whole entry)": "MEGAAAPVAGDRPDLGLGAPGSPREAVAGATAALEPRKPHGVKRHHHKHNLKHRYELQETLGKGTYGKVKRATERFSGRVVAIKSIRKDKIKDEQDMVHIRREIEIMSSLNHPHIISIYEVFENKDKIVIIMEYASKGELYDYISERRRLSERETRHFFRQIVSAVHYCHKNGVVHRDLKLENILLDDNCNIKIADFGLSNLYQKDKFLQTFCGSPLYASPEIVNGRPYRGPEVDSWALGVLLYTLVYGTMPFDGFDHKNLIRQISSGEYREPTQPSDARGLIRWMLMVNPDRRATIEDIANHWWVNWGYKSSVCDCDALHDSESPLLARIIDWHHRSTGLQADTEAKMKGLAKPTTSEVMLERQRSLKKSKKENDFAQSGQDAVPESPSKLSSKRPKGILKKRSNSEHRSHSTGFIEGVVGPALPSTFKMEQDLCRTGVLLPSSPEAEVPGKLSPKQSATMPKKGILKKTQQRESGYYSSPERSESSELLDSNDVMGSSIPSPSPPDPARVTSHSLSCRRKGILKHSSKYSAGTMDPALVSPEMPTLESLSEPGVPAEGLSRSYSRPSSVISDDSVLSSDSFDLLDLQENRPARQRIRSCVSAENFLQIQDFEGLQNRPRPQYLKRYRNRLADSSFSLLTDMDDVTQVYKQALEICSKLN", "experiment": "Inhibition of human ARK5 assessed as enzyme activity at 1 uM using KKKVSRSGLYRSPSMPENLNRPR as substrate preincubated for 20 mins followed by [gamma-33P]-ATP addition and measured after 120 mins by radiometric Hot-SpotSM Kinase assay relative to control"}, "[6]": {"target": "Serine/threonine-protein kinase pim-2 (Homo sapiens) (UniProt Q9P1W9)", "sequence (Q9P1W9 whole entry, looked up)": "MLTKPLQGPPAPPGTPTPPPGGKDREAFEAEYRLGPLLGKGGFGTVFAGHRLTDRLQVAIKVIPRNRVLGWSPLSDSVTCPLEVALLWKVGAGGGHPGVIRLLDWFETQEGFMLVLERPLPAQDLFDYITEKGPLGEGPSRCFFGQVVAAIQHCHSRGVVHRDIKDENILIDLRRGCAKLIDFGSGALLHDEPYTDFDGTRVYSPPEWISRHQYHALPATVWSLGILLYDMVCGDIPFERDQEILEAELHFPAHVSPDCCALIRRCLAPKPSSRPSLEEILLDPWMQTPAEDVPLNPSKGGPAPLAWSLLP", "experiment": "Inhibition of human PIM2 assessed as enzyme activity at 1 uM using RSRHSSYPAGT as substrate preincubated for 20 mins followed by [gamma-33P]-ATP addition and measured after 120 mins by radiometric Hot-SpotSM Kinase assay relative to control"}, "[7]": {"target": "Dual specificity testis-specific protein kinase 1 (Homo sapiens) (UniProt Q15569)", "sequence (Q15569 whole entry, looked up)": "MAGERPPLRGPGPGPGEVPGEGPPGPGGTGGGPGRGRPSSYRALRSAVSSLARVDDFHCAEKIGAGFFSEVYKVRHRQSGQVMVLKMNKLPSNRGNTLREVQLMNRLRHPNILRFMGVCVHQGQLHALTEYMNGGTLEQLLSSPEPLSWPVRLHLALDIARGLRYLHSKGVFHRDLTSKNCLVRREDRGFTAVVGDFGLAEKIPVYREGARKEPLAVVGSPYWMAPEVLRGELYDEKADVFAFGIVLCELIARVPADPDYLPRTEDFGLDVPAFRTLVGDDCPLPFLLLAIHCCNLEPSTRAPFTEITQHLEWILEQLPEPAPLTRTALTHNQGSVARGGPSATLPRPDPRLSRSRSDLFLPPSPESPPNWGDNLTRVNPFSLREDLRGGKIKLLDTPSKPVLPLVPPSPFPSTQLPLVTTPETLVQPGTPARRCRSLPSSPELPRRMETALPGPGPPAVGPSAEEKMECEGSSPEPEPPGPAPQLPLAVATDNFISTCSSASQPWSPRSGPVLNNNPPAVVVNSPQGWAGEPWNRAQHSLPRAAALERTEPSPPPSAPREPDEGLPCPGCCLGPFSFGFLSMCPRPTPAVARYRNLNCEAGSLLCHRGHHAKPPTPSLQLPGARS", "experiment": "Inhibition of human TESK1 assessed as enzyme activity at 1 uM using cofilin 2 as substrate preincubated for 20 mins followed by [gamma-33P]-ATP addition and measured after 120 mins by radiometric Hot-SpotSM Kinase assay relative to control"}}, "data": [{"smiles": "C[C@H](Nc1ncnc2nc[nH]c12)c1cc2cccc(Cl)c2c(=O)n1-c1ccccc1", "values": [{"measurement": "Activity", "setting": "[1]", "result": 98.2, "unit": "%"}, {"measurement": "Activity", "setting": "[2]", "result": 88.7, "unit": "%"}, {"measurement": "Activity", "setting": "[3]", "result": 101, "unit": "%"}, {"measurement": "Activity", "setting": "[4]", "result": 98.5, "unit": "%"}, {"measurement": "Activity", "setting": "[5]", "result": 95, "unit": "%"}, {"measurement": "Activity", "setting": "[6]", "result": 98.1, "unit": "%"}, {"measurement": "Activity", "setting": "[7]", "result": 102, "unit": "%"}]}, {"smiles": "CC[C@H](Nc1ncnc2[nH]cnc12)c1nc2cccc(F)c2c(=O)n1-c1ccccc1", "values": [{"measurement": "Activity", "setting": "[1]", "result": 96.8, "unit": "%"}, {"measurement": "Activity", "setting": "[2]", "result": 96.5, "unit": "%"}, {"measurement": "Activity", "setting": "[3]", "result": 101, "unit": "%"}, {"measurement": "Activity", "setting": "[4]", "result": 93.9, "unit": "%"}, {"measurement": "Activity", "setting": "[5]", "result": 102, "unit": "%"}, {"measurement": "Activity", "setting": "[6]", "result": 100, "unit": "%"}, {"measurement": "Activity", "setting": "[7]", "result": 98.7, "unit": "%"}]}, {"smiles": "CC(C)Oc1ccc(-c2nn([C@@H](C)c3oc4ccc(F)cc4c(=O)c3-c3cccc(F)c3)c3ncnc(N)c23)cc1F", "note": "[UMBRALISIB]", "values": [{"measurement": "Activity", "setting": "[1]", "result": 96.4, "unit": "%"}, {"measurement": "Activity", "setting": "[2]", "result": 92.3, "unit": "%"}, {"measurement": "Activity", "setting": "[3]", "result": 96.4, "unit": "%"}, {"measurement": "Activity", "setting": "[4]", "result": 101, "unit": "%"}, {"measurement": "Activity", "setting": "[5]", "result": 97.8, "unit": "%"}, {"measurement": "Activity", "setting": "[6]", "result": 101, "unit": "%"}, {"measurement": "Activity", "setting": "[7]", "result": 98, "unit": "%"}]}]}
